Laboratory results: PubChem BioAssay AID2060494 (Molecular Pharmacology Branch, DTP, NCI, 2025)

Test system: 435261-313-R-J1-PDC complex spheroid viability
Assay: Anticancer human tumor 435261-313-R-J1-PDC patient-derived colon adenocarcinoma cell line growth inhibition [GQUAD]
Conditions: for IC50: curve of first compound; for viability, T/C: stronger effect = lower value
Outline: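 Viability of tumor cells grown as complex spheroids with endothelial and stromal cells, exposed to drug combinations. Top concentration at or near clinical Cmax (else 10 microM), diluted in half-log increments.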

[1] = second compound 0.0316 µM, first compound 0.0316 µM
[2] = second compound 0.0316 µM, first compound 0.1 µM
[3] = second compound 0.0316 µM, first compound 0.316 µM
[4] = second compound 0.0316 µM, first compound 1 µM
[5] = second compound 0.0316 µM, first compound 3.16 µM
[6] = second compound 0.0316 µM, first compound 10 µM
[7] = second compound 0.1 µM, first compound 0.0316 µM
[8] = second compound 0.1 µM, first compound 0.1 µM
[9] = second compound 0.1 µM, first compound 0.316 µM
[10] = second compound 0.1 µM, first compound 1 µM
[11] = second compound 0.1 µM, first compound 3.16 µM
[12] = second compound 0.1 µM, first compound 10 µM
[13] = second compound 0.316 µM, first compound 0.0316 µM
[14] = second compound 0.316 µM, first compound 0.1 µM
[15] = second compound 0.316 µM, first compound 0.316 µM
[16] = second compound 0.316 µM, first compound 1 µM
[17] = second compound 0.316 µM, first compound 3.16 µM
[18] = second compound 0.316 µM, first compound 10 µM
[19] = second compound 1 µM, first compound 0.0316 µM
[20] = second compound 1 µM, first compound 0.1 µM
[21] = second compound 1 µM, first compound 0.316 µM
[22] = second compound 1 µM, first compound 1 µM
[23] = second compound 1 µM, first compound 3.16 µM
[24] = second compound 1 µM, first compound 10 µM
[25] = second compound 3.16 µM, first compound 0.0316 µM
[26] = second compound 3.16 µM, first compound 0.1 µM
[27] = second compound 3.16 µM, first compound 0.316 µM
[28] = second compound 3.16 µM, first compound 1 µM
[29] = second compound 3.16 µM, first compound 3.16 µM
[30] = second compound 3.16 µM, first compound 10 µM
[31] = second compound 10 µM, first compound 0.0316 µM
[32] = second compound 10 µM, first compound 0.1 µM
[33] = second compound 10 µM, first compound 0.316 µM
[34] = second compound 10 µM, first compound 1 µM
[35] = second compound 10 µM, first compound 3.16 µM
[36] = second compound 10 µM, first compound 10 µM
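Further: spheroids exposed to the agents for seven days before readout.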
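Wherever viability, T/C is given: percent of vehicle control viability with DMSO wells as 100%.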

## CC1COCCN1c1cc(C2(S(C)(=N)=O)CC2)nc(-c2ccnc3[nH]ccc23)n1 (stereo unspecified) + CN(C)c1ccc(Nc2c3ccc(NC(=O)CCN4CCCC4)cc3nc3cc(NC(=O)CCN4CCCC4)ccc23)cc1
Second compound 0.0316 µM
  IC50: > 10000 nM
Second compound 0.1 µM
  IC50: > 10000 nM
Second compound 0.316 µM
  IC50: > 10000 nM
Second compound 1 µM
  IC50: > 10000 nM
Second compound 3.16 µM
  IC50: > 10000 nM
Second compound 10 µM
  IC50: 88.3 nM
[1]
  viability, T/C: 153%
[2]
  viability, T/C: 99.2%
[3]
  viability, T/C: 71.8%
[4]
  viability, T/C: 98%
[5]
  viability, T/C: 69.2%
[6]
  viability, T/C: 70.7%
[7]
  viability, T/C: 88.2%
[8]
  viability, T/C: 96.2%
[9]
  viability, T/C: 106%
[10]
  viability, T/C: 79.1%
[11]
  viability, T/C: 76.7%
[12]
  viability, T/C: 51.8%
[13]
  viability, T/C: 89.4%
[14]
  viability, T/C: 101%
[15]
  viability, T/C: 89.8%
[16]
  viability, T/C: 68.6%
[17]
  viability, T/C: 64.6%
[18]
  viability, T/C: 53.7%
[19]
  viability, T/C: 109%
[20]
  viability, T/C: 115%
[21]
  viability, T/C: 87.6%
[22]
  viability, T/C: 81.4%
[23]
  viability, T/C: 79%
[24]
  viability, T/C: 51.2%
[25]
  viability, T/C: 61.1%
[26]
  viability, T/C: 55.8%
[27]
  viability, T/C: 68.3%
[28]
  viability, T/C: 76.2%
[29]
  viability, T/C: 50.6%
[30]
  viability, T/C: 45.3%
[31]
  viability, T/C: 55.3%
[32]
  viability, T/C: 50.3%
[33]
  viability, T/C: 32.9%
[34]
  viability, T/C: 23.8%
[35]
  viability, T/C: 22.6%
[36]
  viability, T/C: 17%

## CC1COCCN1c1cc(C2(O)CC3CCC(C2)O3)c2cnn(-c3ccn[nH]3)c2n1 (stereo unspecified) + CN(C)c1ccc(Nc2c3ccc(NC(=O)CCN4CCCC4)cc3nc3cc(NC(=O)CCN4CCCC4)ccc23)cc1
Second compound 0.0316 µM
  IC50: 193 nM
Second compound 0.1 µM
  IC50: 316 nM
Second compound 0.316 µM
  IC50: 225 nM
Second compound 1 µM
  IC50: 257 nM
Second compound 3.16 µM
  IC50: < 31.6 nM
Second compound 10 µM
  IC50: < 31.6 nM
[1]
  viability, T/C: 63%
[2]
  viability, T/C: 58.1%
[3]
  viability, T/C: 45.1%
[4]
  viability, T/C: 27.4%
[5]
  viability, T/C: 23.2%
[6]
  viability, T/C: 12%
[7]
  viability, T/C: 71.3%
[8]
  viability, T/C: 82.8%
[9]
  viability, T/C: 47.3%
[10]
  viability, T/C: 26.8%
[11]
  viability, T/C: 21.1%
[12]
  viability, T/C: 10.8%
[13]
  viability, T/C: 75.1%
[14]
  viability, T/C: 61.7%
[15]
  viability, T/C: 45.7%
[16]
  viability, T/C: 28.9%
[17]
  viability, T/C: 25%
[18]
  viability, T/C: 11.6%
[19]
  viability, T/C: 82.7%
[20]
  viability, T/C: 64.5%
[21]
  viability, T/C: 48%
[22]
  viability, T/C: 28.3%
[23]
  viability, T/C: 21.1%
[24]
  viability, T/C: 7.4%
[25]
  viability, T/C: 48.6%
[26]
  viability, T/C: 44.3%
[27]
  viability, T/C: 31.9%
[28]
  viability, T/C: 13.3%
[29]
  viability, T/C: 9.48%
[30]
  viability, T/C: 3.11%
[31]
  viability, T/C: 26.9%
[32]
  viability, T/C: 18.5%
[33]
  viability, T/C: 17%
[34]
  viability, T/C: 7.23%
[35]
  viability, T/C: 3.13%
[36]
  viability, T/C: 1.2%

## CCc1c2c(nc3ccc(O)cc13)-c1cc3c(c(=O)n1C2)COC(=O)[C@]3(O)CC + CN(C)c1ccc(Nc2c3ccc(NC(=O)CCN4CCCC4)cc3nc3cc(NC(=O)CCN4CCCC4)ccc23)cc1
Second compound 0.0316 µM
  IC50: > 316 nM
Second compound 0.1 µM
  IC50: 240 nM
Second compound 0.316 µM
  IC50: 94.9 nM
Second compound 1 µM
  IC50: 104 nM
Second compound 3.16 µM
  IC50: 43.7 nM
Second compound 10 µM
  IC50: < 0.999 nM
Second compound 0.0316 µM, first compound 0.000999 µM
  viability, T/C: 111%
Second compound 0.0316 µM, first compound 0.00316 µM
  viability, T/C: 103%
Second compound 0.0316 µM, first compound 0.00999 µM
  viability, T/C: 73.4%
[1]
  viability, T/C: 69.2%
Second compound 0.0316 µM, first compound 0.0999 µM
  viability, T/C: 65.1%
[3]
  viability, T/C: 48.6%
Second compound 0.1 µM, first compound 0.000999 µM
  viability, T/C: 86.2%
Second compound 0.1 µM, first compound 0.00316 µM
  viability, T/C: 91.2%
Second compound 0.1 µM, first compound 0.00999 µM
  viability, T/C: 72.3%
[7]
  viability, T/C: 74.5%
Second compound 0.1 µM, first compound 0.0999 µM
  viability, T/C: 72.4%
[9]
  viability, T/C: 42.3%
Second compound 0.316 µM, first compound 0.000999 µM
  viability, T/C: 76.4%
Second compound 0.316 µM, first compound 0.00316 µM
  viability, T/C: 77.1%
Second compound 0.316 µM, first compound 0.00999 µM
  viability, T/C: 66.7%
[13]
  viability, T/C: 78.8%
Second compound 0.316 µM, first compound 0.0999 µM
  viability, T/C: 48.9%
[15]
  viability, T/C: 45.1%
Second compound 1 µM, first compound 0.000999 µM
  viability, T/C: 62.2%
Second compound 1 µM, first compound 0.00316 µM
  viability, T/C: 81.2%
Second compound 1 µM, first compound 0.00999 µM
  viability, T/C: 65.2%
[19]
  viability, T/C: 70.9%
Second compound 1 µM, first compound 0.0999 µM
  viability, T/C: 50.4%
[21]
  viability, T/C: 39.3%
Second compound 3.16 µM, first compound 0.000999 µM
  viability, T/C: 50.2%
Second compound 3.16 µM, first compound 0.00316 µM
  viability, T/C: 57%
Second compound 3.16 µM, first compound 0.00999 µM
  viability, T/C: 56.8%
[25]
  viability, T/C: 56.2%
Second compound 3.16 µM, first compound 0.0999 µM
  viability, T/C: 37.1%
[27]
  viability, T/C: 22.2%
Second compound 10 µM, first compound 0.000999 µM
  viability, T/C: 34.9%
Second compound 10 µM, first compound 0.00316 µM
  viability, T/C: 30.8%
Second compound 10 µM, first compound 0.00999 µM
  viability, T/C: 29.8%
[31]
  viability, T/C: 27.1%
Second compound 10 µM, first compound 0.0999 µM
  viability, T/C: 18.6%
[33]
  viability, T/C: 13.6%
